Where two headings read alike, the source gives them in different places.
Assays:
[1] = biological target: T1, CYP2b1 (Rattus norvegicus, UniProt P00176); set-up: from tissue; host or cells: live male Sprague-Dawley rats (whole animal, mainly liver); settings: in vivo
T1 sequence (P00176 1-491): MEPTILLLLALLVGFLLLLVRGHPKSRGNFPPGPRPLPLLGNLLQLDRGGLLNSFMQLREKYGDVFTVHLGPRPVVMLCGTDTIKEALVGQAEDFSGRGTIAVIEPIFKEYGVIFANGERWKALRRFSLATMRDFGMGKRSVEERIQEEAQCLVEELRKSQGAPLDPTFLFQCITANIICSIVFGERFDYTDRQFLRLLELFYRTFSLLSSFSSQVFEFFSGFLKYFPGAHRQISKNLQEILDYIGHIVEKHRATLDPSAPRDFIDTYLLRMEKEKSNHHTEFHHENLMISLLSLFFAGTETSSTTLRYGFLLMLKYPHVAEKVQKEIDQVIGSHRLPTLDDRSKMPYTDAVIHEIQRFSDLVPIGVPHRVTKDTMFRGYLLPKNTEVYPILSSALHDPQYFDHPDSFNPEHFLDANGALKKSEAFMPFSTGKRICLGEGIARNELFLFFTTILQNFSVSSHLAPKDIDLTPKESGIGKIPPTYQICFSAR
Experimental: (§4) The effect of the Zhicaowu–Hezi combination on CYP450 enzymes in rats was evaluated by examining the pharmacokinetics of theophylline (CYP1a2), metoprolol (CYP2d2), bupropion (CYP2b1), omeprazole (CYP2c13), chlorzoxazone (CYP2e1), testosterone (CYP3a1), and diclofenac (CYP2c11).
(§5) The collected blood was placed in sodium heparin-treated centrifuge tubes and centrifuged at 4°C for 10 min at 3,000 RPM. […] After 10 min of sedimentation, the supernatant was extracted through a 0.22-μm microporous membrane, 20 μL of which was injected into HPLC. The pharmacokinetic parameters of each probe drug were calculated using the non-atrial compartment model in Drug and Statistics software (DAS, 3.0; Shanghai, China).

[2] = biological target: T2, CYP3a1 (Rattus norvegicus, UniProt P04800); set-up: from tissue; host or cells: live male Sprague-Dawley rats (whole animal, liver and intestine); settings: in vivo
T2 sequence (P04800 1-504): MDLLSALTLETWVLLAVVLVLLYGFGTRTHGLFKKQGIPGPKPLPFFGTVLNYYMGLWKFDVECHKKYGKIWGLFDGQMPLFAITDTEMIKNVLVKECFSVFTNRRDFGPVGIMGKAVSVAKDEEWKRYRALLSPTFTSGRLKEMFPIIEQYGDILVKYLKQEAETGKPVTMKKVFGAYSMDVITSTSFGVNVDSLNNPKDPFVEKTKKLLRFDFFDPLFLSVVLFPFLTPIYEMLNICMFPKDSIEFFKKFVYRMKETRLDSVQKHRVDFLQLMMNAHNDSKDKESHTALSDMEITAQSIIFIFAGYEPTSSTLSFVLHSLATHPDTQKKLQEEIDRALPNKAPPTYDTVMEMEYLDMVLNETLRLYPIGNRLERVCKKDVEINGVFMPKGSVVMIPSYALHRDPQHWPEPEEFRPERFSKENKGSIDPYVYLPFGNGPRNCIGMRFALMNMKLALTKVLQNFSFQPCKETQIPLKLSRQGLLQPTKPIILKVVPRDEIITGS
Experimental: as §4, §5

[3] = biological target: T1, CYP2b1; test: RLM incubation: metabolic clearance rate of bupropion (CYP2b1); settings: RLM 0.5 mg/mL, 30 min 37°C, inhibitor added, blank control 7.92 ± 0.60, n = 3
Experimental: (§1) The effect of the Zhicaowu–Hezi combination on CYP450 enzymes in RLM was evaluated by assessing the metabolic clearance rates of theophylline, metoprolol, bupropion, mephenytoin (CYP2c13), chlorzoxazone, testosterone, and diclofenac.
(§2) On day 15, the rats were humanely euthanized, and liver tissues were excised for microsomal preparation. […] Livers from each group were repeatedly washed with ice-cold phosphate buffered saline (PBS). […] Subsequently, they were blotted dry with filter paper, weighed, and homogenized by adding 4 mL of ice-cold PBS per gram of liver tissue. The mixture was homogenized in an ice bath. The liver homogenate was subjected to centrifugation at 10,000 RPM for 20 min at 4°C. The resulting supernatant was then combined with an ice-cold 88-mmol/L CaCl2 solution at a 1:1 ratio, and the mixture was homogenized in an ice bath for 5 min. The resulting solution was then centrifuged at 25,000 × g for 30 min at 4°C. The supernatant was discarded and the precipitate was repeatedly resuspended in PBS–20% glycerol buffer. The precipitate was then stored in a separate bottle at −80°C for backup. The protein concentration of the prepared RLM was determined using a bicinchoninic acid protein assay kit.
(§3) Preincubation was conducted for 5 min in a water bath at 37°C, after which NADPH (1 mmol/L) was added, and incubation continued for 30 min at 37°C. Once the incubation period elapsed, the reaction was terminated by the addition of an ice-cold IS-containing acetonitrile solution. The samples were vortexed for 2 min and centrifuged at 15,000 RPM for 10 min. The resulting supernatant was filtered through a 0.22-μm organic microporous membrane, and 20 μL of the filtered solution was injected into the HPLC assay. To prevent the organic solvents from inducing or inhibiting the enzyme, the volume fraction of organic solvents in the entire incubation system was maintained at 1%. […] The inhibitor group was added with corresponding inhibitor, while all other procedures remained identical.

[4] = biological target: T3, CYP2c11 (Rattus norvegicus, UniProt P08683)
T3 sequence (P08683 1-500): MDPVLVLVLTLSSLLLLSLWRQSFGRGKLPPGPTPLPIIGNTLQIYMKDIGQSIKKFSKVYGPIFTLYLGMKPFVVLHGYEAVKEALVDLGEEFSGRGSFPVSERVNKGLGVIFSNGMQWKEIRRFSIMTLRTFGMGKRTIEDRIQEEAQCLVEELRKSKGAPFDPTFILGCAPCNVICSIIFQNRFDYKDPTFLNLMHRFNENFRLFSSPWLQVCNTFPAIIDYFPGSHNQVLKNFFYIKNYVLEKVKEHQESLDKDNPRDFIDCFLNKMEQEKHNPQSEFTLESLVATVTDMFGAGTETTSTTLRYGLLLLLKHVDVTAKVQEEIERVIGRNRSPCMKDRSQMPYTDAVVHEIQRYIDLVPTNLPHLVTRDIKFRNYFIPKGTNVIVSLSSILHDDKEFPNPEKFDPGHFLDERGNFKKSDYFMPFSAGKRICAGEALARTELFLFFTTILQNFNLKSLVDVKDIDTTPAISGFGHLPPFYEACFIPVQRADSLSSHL
Experimental: as §1, §2, §3

Row | SMILES | bupropion AUC(0-t) [1] | bupropion AUC(0-∞) [1] | bupropion CLz/F [1] | bupropion Cmax [1] | bupropion t1/2 z [1] | testosterone AUC(0-t) [2] | testosterone AUC(0-∞) [2] | testosterone CLz/F [2] | testosterone Cmax [2] | testosterone t1/2 z [2] | CYP2b1(%) metabolic clearance rate of probe drug [3] | CYP2c11(%) metabolic clearance rate of probe drug [4] | CYP2c11(%) metabolic clearance rate of probe drug ([4]; RLM 0.5 mg/mL, 30 min 37°C, inhibitor added, probe diclofenac, blank control 21.12 ± 3.80, n = 3)
1 | CCC1(c2ccccc2)C(=O)NC(=O)NC1=O [P, phenobarbital sodium] | 13.249 ± 1.396 µg·h/mL | 13.714 ± 1.057 µg·h/mL | 0.452051 ± 0.075378 L/h/kg | 1.151 ± 0.138 µg/mL | 15.564 ± 0.555 h | 0.756 ± 0.048 µg·h/mL | 0.907 ± 0.093 µg·h/mL | 6,479.436 ± 351.908 mL/h/kg | 0.107 ± 0.015 µg/mL | 7.394 ± 0.958 h | – | – | –
2 | S=P(N1CC1)(N1CC1)N1CC1 [Thiotepa] | – | – | – | – | – | – | – | – | – | – | 2.24 ± 0.16 % | 21.84 ± 2.64% | –
3 | O=c1cc(-c2ccccc2)oc2c1ccc1ccccc12 [α-naphthoflavone] | – | – | – | – | – | – | – | – | – | – | 8.00 ± 0.97% | – | 23.02 ± 0.55%

Reference: article PMC12301304 (Frontiers in Pharmacology, 2025)
